According to US7803930B2, “Antisense modulation of apolipoprotein B-expression” (Isis Pharmaceuticals, Inc., priority 2002, dated 2010):

Columns and labels:
apolipoprotein B mRNA = assay: High fat fed C57BL/6 mice, 6 week timecourse: target mRNA levels in liver; type: in vivo, mouse; settings: six weeks
Procedure: Male C57BL/6 mice (n=8) receiving a high fat diet (60% kcal fat) were evaluated over the course of 6 weeks for the effects of treatment with the antisense oligonucleotide, ISIS 147764. Control animals received saline treatment (50 mg/kg). A subset of animals received a daily oral dose (20 mg/kg) atorvastatin calcium (Lipitor®, Pfizer Inc.). All mice, except atorvastatin-treated animals, were dosed intraperitoneally every three days (twice a week), after fasting overnight, with 5, 25, 50 mg/kg ISIS 147764 (SEQ ID No: 109) or saline (50 mg/kg) for six weeks. Serum cholesterol and lipoproteins were analyzed at 0, 2 and 6 week interim timepoints. At study termination, animals were sacrificed 48 hours after the final injections and evaluated for levels of target mRNA levels in liver, cholesterol, lipoprotein, triglyceride, liver enzyme (AST and ALT) and serum glucose levels as well as body, liver, spleen and fat pad weights.
Male C57BL/6 mice (n=8) receiving a high fat diet (60% kcal fat) were evaluated over the course of 6 weeks for the effects of ISIS 147764 on mRNA expression. Control animals received saline treatment (50 mg/kg). Mice were dosed intraperitoneally every three days (twice a week), after fasting overnight, with 5, 25, 50 mg/kg ISIS 147764 (SEQ ID No: 109) or saline (50 mg/kg) for six weeks. At study termination, animals were sacrificed 48 hours after the final injections and evaluated for levels of target mRNA levels in liver.

[1] = Evaluation of steatosis in high fat fed animals treated for 6 weeks, liver histology; type: in vivo, mouse; settings: high fat fed C57BL/6 mice; 6 weeks of treatment
Text: Tissue resected from liver is immediately immersed in Tissue Tek OCT embedding compound (Ted Pella, Inc., Redding, Calif.) and frozen in a 2-methyl-butane dry ice slurry. Tissue sections are cut at a thickness of 4-5 μm and then fixed in 5% neutral-buffered formalin. Tissue sections are stained with hematoxylin and eosin following standard histological procedures to visualize nuclei and cytoplasm, respectively, and oil red 0 according to the manufacturer's instructions (Newcomers Supply, Middleton, Wis.) to visualize lipids.
Alternatively, tissues are fixed in 10% neutral-buffered formalin, embedded in paraffin, sectioned at a thickness of 4-5 μm, deparaffinized and stained with hematoxylin and eosin, all according to standard histological procedures.
Liver tissue from ISIS 147764 (SEQ ID NO: 109) and control-treated animals described in Example 21 was evaluated for steatosis at study termination following 6 weeks of treatment. Tissue sections were stained with oil red 0 and hematoxylin to visualize lipids and nuclei, respectively. Tissue sections were also stained with hematoxylin and eosin to visualize nuclei and cytoplasm, respectively.

[2] = test system: mouse apolipoprotein B mRNA; assay: Transgenic mice dosing study (Example 52): mouse apolipoprotein B mRNA in liver; type: in vivo; settings: for % Inhibition, mouse apolipoprotein B mRNA: liver, 12 weeks
Procedure: A long-term study of inhibition of human apolipoprotein B by ISIS 301012 in C57BL/6NTac-TgN(APOB100) mice (Taconic, Germantown, N.Y.) was conducted for a 3 month period. Mice were dosed intraperitoneally twice a week with 10 or 25 mg/kg ISIS 301012 (SEQ ID No: 247) for 12 weeks. Saline-injected animals served as controls. Each treatment group comprised 4 animals.
The study was terminated forty eight hours after the final injections in the eighth week of treatment, when animals were sacrificed and evaluated for target mRNA levels in liver, apolipoprotein B protein levels in liver and serum cholesterol and liver enzyme levels. In addition, the expression of endogenous mouse apolipoprotein B levels in liver was measured to evaluate any effects of ISIS 301012 on mouse apolipoprotein B mRNA expression.
Human and mouse apolipoprotein B mRNA levels in livers of animals treated for 12 weeks were measured by real-time PCR as described herein. Each result represents the average of data from 4 animals.

[3] = test system: human apolipoprotein B protein; assay: Transgenic mice dosing study (Example 52): ELISA of human apolipoprotein B protein in liver; type: in vivo, human transgene in mouse
[4] = test system: mouse apolipoprotein B mRNA; assay: Long-term study in lean CD-1 mice (Example 63): apolipoprotein B mRNA in liver; type: in vivo; settings: after one month of treatment
Procedure: In accordance with the present invention, the toxicity of ISIS 301012 (SEQ ID NO: 247) is investigated in a long-term, 3 month study in mice. Two-month old male and female CD-1 mice (Charles River Laboratories, Wilmington, Mass.) are dosed with 2, 5, 12.5, 25 or 50 mg/kg of ISIS 301012 twice per week for first week, and every 4 days thereafter. The mice are maintained on a standard rodent diet. Saline and control oligonucleotide animals serve as controls and are injected on the same schedule. Each treatment group contains 6 to 10 mice of each sex, and each treatment group is duplicated, one group for a 1 month study termination, the other for a 3 month study termination. After the 1 or 3 month treatment periods, the mice are sacrificed and evaluated for target expression in liver, lipid levels in serum and indicators of toxicity. Liver samples are procured, RNA is isolated and apolipoprotein B mRNA expression is measured by real-time PCR as described in other examples herein. Serum lipids, including total cholesterol, LDL-cholesterol, HDL-cholesterol and triglycerides, are evaluated by routine clinical analysis using an Olympus Clinical Analyzer (Olympus America Inc., Melville, N.Y.). Ratios of LDL-cholesterol to HDL-cholesterol and total cholesterol to HDL-cholesterol are also calculated. […]

## GTCCCTGAAGATGTCAATGC (2'-MOE gapmer, further chemistry not given here) [ISIS 147764]
Apolipoprotein B mRNA; 5 mg/kg i.p. every three days
  reduction of target mRNA levels in liver: 15%
Apolipoprotein B mRNA; 25 mg/kg i.p. every three days
  reduction of target mRNA levels in liver: 75%
Apolipoprotein B mRNA; 50 mg/kg i.p. every three days
  reduction of target mRNA levels in liver: 88%
[1]
  steatosis vs saline treated animals (histology): no difference in steatosis

## ISIS 301012: SEQ ID NO: 247, antisense oligonucleotide targeted to human apolipoprotein B (antisense GCCTCAGTCTGCTTCGCACC; chemistry not given here)
[2]; 12 weeks of treatment
  mouse liver apolipoprotein B mRNA: unaffected
[2]; 10 mg/kg i.p. twice a week
  % Inhibition, mouse apolipoprotein B mRNA: 6%
[2]; 25 mg/kg i.p. twice a week
  % Inhibition, mouse apolipoprotein B mRNA: 6%
[3]; 10 mg/kg
  reduction in human apolipoprotein B protein in liver (ELISA): 80%
[3]; 20 mg/kg (so in the source)
  reduction in human apolipoprotein B protein in liver (ELISA): 82%
[4]
  reduction of mouse apolipoprotein B mRNA levels in liver: 53%
